Laboratory results taken from ChEMBL document CHEMBL1201862, “PubChem BioAssay data set” (2004).
Calls of active or inactive are those of the source.

Columns and labels:
[1] = Trypanosoma cruzi growth suppression in host cells – NIH3T3 host cells, beta-gal luminescence, confirmation (AID 2044); format: functional, cell-based;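 also: intracellular parasites grown in NIH/3T3 mouse fibroblasts as host cells; luminescent beta-galactosidase reporter signal from transgenic T. cruzi replicating inside host cells; inhibitors lower the luminescence signal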
[2] = NIH3T3 cell viability loss – ATP luminescence, mouse fibroblasts, counter-screen, dose response (AID 2010); format: functional, cell-based; details: NIH3T3;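 also: cells exposed to compound for about 90 hours before reading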
[3] = target: Heat shock protein HSP 90-alpha (Homo sapiens, UniProt P07900); assay: Luminescence-based dose response biochemical high throughput screening assay for inhibitors of the Heat Shock Protein 90 (HSP90). [Related pubchem assays: 1831 (Summary AID.), 1846 (Confirmation screen.), 1789 (Primary screen.)]
[4] = target: T1, Microphthalmia-associated transcription factor (Homo sapiens, UniProt O75030); assay: reducers of TRPM1 reporter luminescence, concentration series – cell-based, SK-MEL-5, cherry-picked, set 3, MITF inhibitor project, dose response (AID 493073); format: functional;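 also: SK-MEL-5 melanoma cells with luciferase driven by the MITF target TRPM1 promoter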
T1 sequence (O75030 whole entry): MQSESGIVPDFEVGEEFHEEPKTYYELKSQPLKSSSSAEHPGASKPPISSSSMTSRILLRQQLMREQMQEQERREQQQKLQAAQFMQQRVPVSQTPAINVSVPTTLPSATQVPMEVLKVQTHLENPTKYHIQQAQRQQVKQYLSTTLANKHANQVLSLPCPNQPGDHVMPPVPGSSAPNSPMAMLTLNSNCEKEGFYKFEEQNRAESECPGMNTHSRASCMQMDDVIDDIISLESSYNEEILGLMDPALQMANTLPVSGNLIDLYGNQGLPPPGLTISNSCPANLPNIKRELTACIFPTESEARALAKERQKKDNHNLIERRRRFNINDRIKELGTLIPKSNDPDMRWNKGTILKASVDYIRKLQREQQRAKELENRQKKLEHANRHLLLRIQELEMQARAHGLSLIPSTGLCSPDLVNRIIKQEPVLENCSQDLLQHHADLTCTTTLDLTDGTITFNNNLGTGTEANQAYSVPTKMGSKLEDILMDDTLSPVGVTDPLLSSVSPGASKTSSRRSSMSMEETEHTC

[5] = target: T2, Apoptotic protease-activating factor 1 (Homo sapiens, UniProt O14727); format: functional
T2 sequence (O14727 whole entry): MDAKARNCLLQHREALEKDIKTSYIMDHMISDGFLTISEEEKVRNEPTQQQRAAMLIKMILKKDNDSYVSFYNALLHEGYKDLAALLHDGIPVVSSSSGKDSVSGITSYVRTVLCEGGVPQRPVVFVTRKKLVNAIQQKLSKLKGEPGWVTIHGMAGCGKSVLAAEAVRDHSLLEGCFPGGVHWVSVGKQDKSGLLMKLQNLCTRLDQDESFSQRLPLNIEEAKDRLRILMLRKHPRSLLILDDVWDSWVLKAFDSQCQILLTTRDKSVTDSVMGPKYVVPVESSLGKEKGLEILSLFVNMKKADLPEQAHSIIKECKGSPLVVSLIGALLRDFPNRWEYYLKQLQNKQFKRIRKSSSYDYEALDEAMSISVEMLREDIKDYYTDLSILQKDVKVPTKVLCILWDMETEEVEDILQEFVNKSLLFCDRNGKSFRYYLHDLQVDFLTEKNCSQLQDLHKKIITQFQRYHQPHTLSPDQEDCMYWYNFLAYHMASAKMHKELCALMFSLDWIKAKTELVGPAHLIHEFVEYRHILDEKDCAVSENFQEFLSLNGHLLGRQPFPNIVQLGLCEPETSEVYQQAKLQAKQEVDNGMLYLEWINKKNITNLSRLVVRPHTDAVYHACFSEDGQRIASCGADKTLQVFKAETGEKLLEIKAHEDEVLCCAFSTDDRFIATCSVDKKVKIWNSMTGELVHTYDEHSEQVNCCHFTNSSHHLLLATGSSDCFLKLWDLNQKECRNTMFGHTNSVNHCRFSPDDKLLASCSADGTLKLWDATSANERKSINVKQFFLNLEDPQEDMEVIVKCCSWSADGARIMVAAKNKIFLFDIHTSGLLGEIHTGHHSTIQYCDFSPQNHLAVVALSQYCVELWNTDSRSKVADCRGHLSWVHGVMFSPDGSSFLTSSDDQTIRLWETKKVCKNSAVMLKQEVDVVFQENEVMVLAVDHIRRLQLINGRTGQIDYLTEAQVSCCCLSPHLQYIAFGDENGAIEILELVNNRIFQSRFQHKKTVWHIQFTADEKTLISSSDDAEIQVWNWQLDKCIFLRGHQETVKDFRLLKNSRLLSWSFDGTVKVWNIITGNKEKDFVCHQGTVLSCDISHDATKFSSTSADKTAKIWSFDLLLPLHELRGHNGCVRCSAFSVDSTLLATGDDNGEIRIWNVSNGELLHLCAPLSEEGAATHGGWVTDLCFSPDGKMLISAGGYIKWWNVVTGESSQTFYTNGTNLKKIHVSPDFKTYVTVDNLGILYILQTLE

[6] = inhibitors of TRPM1-promoter reporter in SK-MEL-5 – cell-based, luciferase, dry powder, set 9, MITF inhibitor project, dose response (AID 651588); format: functional
[7] = cytotoxicity in MITF-independent A375 cells – cell-based, CellTiter-Glo luminescence, dry powder, set 4, counter-screen for MITF inhibitor project, dose response (AID 624364); format: functional; details: A-375;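 also: A375 melanoma cells are MITF independent so this is a counter screen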
[8] = viability loss in MITF-independent A375 cells – cell-based, CellTiter-Glo luminescence, dry powder, set 7, counter-screen for MITF inhibitor project, dose response (AID 624490); format: functional; details: A-375
[9] = MITF Orthogonal Assay: MALME3 CTG Assay Measured in Cell-Based System Using Plate Reader - 2084-04_Inhibitor_Dose_DryPowder_Activity_Set6.; format: functional; details: MALME-3
[10] = growth inhibition of SK-MEL-5 melanoma cells – cell-based, CellTiter-Glo luminescence, dry powder, set 8, orthogonal assay for MITF inhibitor project, dose response (AID 651586); format: functional
[11] = growth inhibition of MALME3 cells – cell-based, CellTiter-Glo luminescence, dry powder, set 5, orthogonal assay for MITF inhibitor project, dose response (AID 651584); format: functional; details: MALME-3
[12] = cytotoxicity in melanoma parental cells – cell-based, CellTiter-Glo, dry powder, set 6, MITF inhibitor project, dose response (AID 624429); format: functional; details: SK-MEL-5
[13] = MITF Orthogonal Assay: SK-MEL-5 CTG Assay Measured in Cell-Based System Using Plate Reader - 2084-02_Inhibitor_Dose_DryPowder_Activity_Set5.; format: functional
[14] = viability loss in MITF-independent A375 cells – cell-based, CellTiter-Glo luminescence, dry powder, set 6, counter-screen for MITF inhibitor project, dose response (AID 624488); format: functional; details: A-375
[15] = cytotoxicity in MITF-independent A375 cells – cell-based, CellTiter-Glo luminescence, dry powder, set 9, counter-screen for MITF modulator project, dose response (AID 651591); format: functional; details: A-375
[16] = MITF Measured in Cell-Based System Using Plate Reader - 2084-01_Inhibitor_Dose_DryPowder_Activity_Set6.; format: functional
[17] = viability loss in MITF-independent A375 cells – cell-based, CellTiter-Glo luminescence, dry powder, set 2, counter-screen for MITF inhibitor project, dose response (AID 624489); format: functional; details: A-375;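 also: actives are compounds lowering A375 viability meaning general cytotoxicity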
[18] = MITF Measured in Cell-Based System Using Plate Reader - 2084-01_Inhibitor_Dose_DryPowder_Activity_Set7.; format: functional
[19] = target: Glyceraldehyde-3-phosphate dehydrogenase (Homo sapiens, UniProt P04406)
Chain of Glyceraldehyde-3-phosphate dehydrogenase (P04406 whole entry): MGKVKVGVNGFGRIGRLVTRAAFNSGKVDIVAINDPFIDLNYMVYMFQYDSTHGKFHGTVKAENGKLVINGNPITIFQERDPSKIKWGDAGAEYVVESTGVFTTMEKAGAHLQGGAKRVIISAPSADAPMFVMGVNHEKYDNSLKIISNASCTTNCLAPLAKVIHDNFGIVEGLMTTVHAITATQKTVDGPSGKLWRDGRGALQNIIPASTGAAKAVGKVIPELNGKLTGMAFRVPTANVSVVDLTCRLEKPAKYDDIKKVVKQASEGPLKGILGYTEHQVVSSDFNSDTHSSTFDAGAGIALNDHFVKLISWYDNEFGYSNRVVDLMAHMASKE

HT-1080 = assay: HT1080 cell viability loss – fluorescence readout (AID 620); format: functional, cell-based; details: Homo sapiens
cells = format: functional

CC(=O)Nc1ccc(OS(=O)(=O)c2ccc([N+](=O)[O-])cc2)cc1
EC50 [1]: 1.56 µM (active) | EC50 [2]: > 60 µM (not active) | IC50 [3]: 3.75 µM (active)

CCN1CCN(C2=C(NS(=O)(=O)c3ccc(Br)cc3)C(=O)c3ccccc3C2=O)CC1
AC50 [4]: 5.7 µM (active) | IC50 [5]: 24.3 µM (active) | AC50 [6]: 17.3 µM (active) | AC50 [7]: > 70 µM (inactive) | AC50 [8]: > 70 µM (inactive) | AC50 [9]: 20.9 µM (active) | AC50 [10]: 48.4 µM (active) | AC50 [11]: 20.9 µM (active) | AC50 [12]: 46.2 µM (active) | AC50 [13]: 34.3 µM (active) | AC50 [14]: 55.1 µM (active) | AC50 [15]: > 70 µM (inactive) | AC50 [16]: 8.92 µM (active) | AC50 [17]: > 70 µM (inactive) | AC50 [18]: 4.5 µM (active)

CCOc1ccc(OCc2ccc(C(=O)OCc3ccccn3)o2)cc1
IC50 [19]: > 100 µM (not active) | EC50 (HT-1080): > 50 µM (not active) | IC50 (cells): 36 µM (active)
